The results in this text go back to patent US8481564B2, “Inhibitors of c-fms kinase” (Janssen Pharmaceutica, N.V., priority 2006, dated 2013).

Experiment [1] relates to mouse bone-marrow derived macrophages. The experiment can be described thus: CSF-1-driven mouse bone-marrow derived macrophages assay (BrDU incorporation). Particulars: BMDM; CSF-1 stimulated mouse bone-marrow derived macrophages, 30 hrs culture, BrDU incorporation ELISA; read-out: mCSF driven proliferation BMDM (Mouse). Format: cell-based. As for the experimental part:
CSF-1-Driven Mouse Bone-Marrow Derived Macrophages Assay
Macrophages are derived by culturing mouse bone marrow in alpha-MEM supplemented with 10% FCS (fetal calf serum) and 50 ng/ml recombinant mouse CSF-1 in bacteriologic dishes. On the sixth day, macrophages are detached from dishes, washed, and resuspended to 0.1 million cells/ml in alpha-MEM containing 10% FCS. One hundred ul of cell suspension are distributed per well into 96 well culture plates. Wells are further supplemented with the addition of 50 ul media containing 15 ng/ml CSF-1, 3 uM Indomethacin, and 3× of a dilution series of test compounds. The cells are cultured for 30 hrs at 37° C. and 5% CO2. During the final six hours, cultures are supplemented with an additional 30 ul of media containing a 1:500 dilution of bromodeoxyuridine (BrDU). At the end of the culture period, the media is removed and replaced with […] of fixative solution for 30′@room temperature. The fixative is then dispelled from the plates and the plates allowed to air dry. Incorporation of BrDU into the fixed, dried cells is quantified using a specific ELISA (Cat X1327K) from Exalpha Corporation (Watertown Mass.). Background values are determined from wells without BrDU reagent. IC50 values are calculated based on signal from CSF-1 stimulated cells without compound present.
Background: ELISA stands for enzyme-linked immunosorbent assay.

Experiment [2] deals with CSF-1R (Homo sapiens (Human), UniProt P07333). The experiment can be described thus: Fluorescence polarization competition immunoassay (inhibition of CSF-1R phosphorylation of tyrosine on synthetic CSF-1R555-568 peptide). Format: biochemical. Particulars: CSF-1R fluorescence polarization assay; 0.7 nM CSF-1R, 1 mM ATP, 308 μM peptide; mean of at least three determinations.
Sequence of CSF-1R (P07333 20-972): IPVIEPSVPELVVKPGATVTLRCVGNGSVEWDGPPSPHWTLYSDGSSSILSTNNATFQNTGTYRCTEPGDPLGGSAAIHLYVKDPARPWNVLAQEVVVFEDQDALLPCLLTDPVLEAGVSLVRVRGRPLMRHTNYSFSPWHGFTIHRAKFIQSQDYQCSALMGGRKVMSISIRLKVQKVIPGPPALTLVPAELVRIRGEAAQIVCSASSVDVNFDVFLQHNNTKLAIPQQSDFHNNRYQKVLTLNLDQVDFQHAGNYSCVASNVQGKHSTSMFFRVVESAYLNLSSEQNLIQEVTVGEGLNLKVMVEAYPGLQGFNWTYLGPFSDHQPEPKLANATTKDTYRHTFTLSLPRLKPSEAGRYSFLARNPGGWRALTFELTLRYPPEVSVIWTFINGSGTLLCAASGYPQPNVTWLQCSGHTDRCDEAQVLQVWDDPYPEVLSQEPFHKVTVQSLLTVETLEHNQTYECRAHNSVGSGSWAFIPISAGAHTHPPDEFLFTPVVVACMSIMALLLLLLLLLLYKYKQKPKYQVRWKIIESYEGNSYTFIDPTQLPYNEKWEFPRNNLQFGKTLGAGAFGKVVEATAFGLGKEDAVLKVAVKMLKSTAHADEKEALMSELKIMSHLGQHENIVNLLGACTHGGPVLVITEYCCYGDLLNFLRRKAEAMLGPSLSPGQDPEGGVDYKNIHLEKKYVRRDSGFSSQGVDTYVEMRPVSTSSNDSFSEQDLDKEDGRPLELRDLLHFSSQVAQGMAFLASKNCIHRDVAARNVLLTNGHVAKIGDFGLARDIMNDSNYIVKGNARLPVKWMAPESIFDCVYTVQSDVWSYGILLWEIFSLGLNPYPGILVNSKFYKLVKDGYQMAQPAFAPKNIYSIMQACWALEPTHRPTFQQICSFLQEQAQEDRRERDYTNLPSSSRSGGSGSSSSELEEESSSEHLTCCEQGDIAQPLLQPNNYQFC
Protocol: Fluorescence Polarization Competition Immunoassay
The kinase reaction was initiated by adding 1 μL of 10 mM ATP in assay buffer. […] Positive and negative control wells were included on each plate, where 4% DMSO in assay buffer was substituted for the compound; in addition, positive control wells received 1.2 μL of 50 mM EDTA before the start of the reaction.
The plates were covered and incubated at room temperature for 80 min. Reactions were stopped by addition of 1.2 μL of 50 mM EDTA. […] The plates were covered, incubated for 30 min at room temperature, and the fluorescence polarization was read on an Analyst plate reader (Molecular Devices). […] Reported IC50 values are the mean of three of at least three determinations.

As to `N#CN=C1NCC(c2ccc(NC(=O)c3nc(C#N)c[nH]3)c(C3=CCCCC3)c2)CN1` (stereo not drawn) [Example 12, 4-Cyano-1H-imidazole-2-carboxylic acid[4-(2-cyanoimino-hexahydro-pyrimidin-5-yl)-2-cyclohex-1-enyl-phenyl]-amide], the IC50 turned out to be 0.04 µM in experiment [1] and 0.003 µM in experiment [2].
With `CN1CC(c2ccc(NC(=O)c3nc(C#N)c[nH]3)c(C3=CCC(C)(C)CC3)c2)CN(C)C1=O` [Example 8, 4-Cyano-1H-imidazole-2-carboxylic acid [2-(4,4-dimethyl-cyclohex-1-enyl)-4-(1,3-dimethyl-2-oxo-hexahydro-pyrimidin-5-yl)-phenyl]-amide], the IC50 in experiment [1] stood at 0.003 µM.
On the same count and under the same terms, in the case of `CN1CC(c2ccc(NC(=O)c3cc(C#N)c[nH]3)c(C3=CCCCCC3)c2)CN(C)C1=O` [Example 10, 4-Cyano-1H-pyrrole-2-carboxylic acid [2-cyclohept-1-enyl-4-(1,3-dimethyl-2-oxo-hexahydro-pyrimidin-5-yl)-phenyl]-amide] it was 0.1 µM; in that of `CC1(C)CC=C(c2cc(C3CC(=O)NC(=O)C3)ccc2NC(=O)c2nc(C#N)c[nH]2)CC1` [Example 3, 4-Cyano-1H-imidazole-2-carboxylic acid [2-(4,4-dimethyl-cyclohex-1-enyl)-4-(2,6-dioxo-piperidin-4-yl)-phenyl]-amide], 0.007 µM.
Still for that read-out and setting: in the case of `N#Cc1c[nH]c(C(=O)Nc2ccc(C3CC(=O)NC(=O)C3)cc2C2=CCCCC2)n1` [Example 1, 4-Cyano-1H-imidazole-2-carboxylic acid [2-cyclohex-1-enyl-4-(2,6-dioxo-piperidin-4-yl)-phenyl]-amide] it was 0.01 µM.
In experiment [2], `N#Cc1c[nH]c(C(=O)Nc2ccc(C3COC(=O)OC3)cc2C2=CCCCC2)n1` [Example 15, 4-Cyano-1H-imidazole-2-carboxylic acid[2-cyclohex-1-enyl-4-(2-oxo-[1,3]dioxan-5-yl)-phenyl]-amide] yielded an IC50 of over 0.3 µM.
For the compound `CN1CC(c2ccc(NC(=O)c3nc(C#N)c[nH]3)c(C3=CCCCC3)c2)CN(C)S1(=O)=O` [Example 11, 4-Cyano-1H-imidazole-2-carboxylic acid [2-cyclohex-1-enyl-4-(2,6-dimethyl-1,1-dioxo-1λ^6-[1,2,6]thiadiazinan-4-yl)-phenyl]-amide], the IC50 in experiment [1] turned out to be 0.002 µM.
As to `N#Cc1c[nH]c(C(=O)Nc2cc(CO)c(C3CNS(=O)(=O)NC3)cc2C2=CCCCC2)n1` [Example 6, 4-Cyano-1H-imidazole-2-carboxylic acid [2-cyclohex-1-enyl-4-(1,1-dioxo-1λ^6-[1,2,6]thiadiazinan-4-yl)-5-hydroxymethyl-phenyl]-amide], the IC50 in experiment [1] worked out at 0.06 µM; in experiment [2] it was 0.01 µM.
Turning to `CN1CC(c2ccc(NC(=O)c3nc(C#N)c[nH]3)c(C3=CCCCCC3)c2)CN(C)C1=O` [Example 9, 4-Cyano-1H-imidazole-2-carboxylic acid [2-cyclohept-1-enyl-4-(1,3-dimethyl-2-oxo-hexahydro-pyrimidin-5-yl)-phenyl]-amide], in experiment [1], the IC50 was 0.005 µM.
Still for that read-out and setting: for `N#Cc1c[nH]c(C(=O)Nc2ccc(C3CNS(=O)(=O)NC3)cc2C2=CCCCC2)n1` [Example 5, 4-Cyano-1H-imidazole-2-carboxylic acid [2-cyclohex-1-enyl-4-(1,1-dioxo-1λ^6-[1,2,6]thiadiazinan-4-yl)-phenyl]-amide] the value was 0.06 µM; for `CN1C(=O)CC(c2ccc(NC(=O)c3nc(C#N)c[nH]3)c(C3=CCCCC3)c2)CC1=O` [Example 14, 4-Cyano-1H-imidazole-2-carboxylic acid[2-cyclohex-1-enyl-4-(1-methyl-2,6-dioxo-piperidin-4-yl)-phenyl]-amide], 0.004 µM.
Consider `CS(=O)(=O)N=C1NCC(c2ccc(NC(=O)c3nc(C#N)c[nH]3)c(C3=CCCCC3)c2)CN1` (stereo not drawn) [Example 13, 4-Cyano-1H-imidazole-2-carboxylic acid[2-cyclohex-1-enyl-4(2methanesulfonylimino-hexahydro-pyrimidin-5-yl)-phenyl]-amide], for which the IC50 in experiment [1] was 0.1 µM; in experiment [2], 0.002 µM.
